Laboratory results reported in patent US20230277508A1, “USE OF COMPOUND AS CYP2E1 INHIBITOR” (SHANGHAI LING XI BIOTECHNOLOGY DEVELOPMENT CO., LTD., priority 2020, published 2023).
Marks after values point to notes of the source that are not given here.

What was measured:
[1] = tested on: hyperlipidemia and aortic atherosclerotic plaques in ApoE-/- mice; test: ApoE-/- mouse hyperlipidemia model induced by a high-fat diet; assay type: in vivo; conditions: for High-density lipoprotein / Low-density lipoprotein / Total cholesterol / Triglyceride: serum, 16 weeks, n=8
Protocol: Experimental method: ApoE^−/− mice were fed with a high-fat and high-cholesterol feed to construct an ApoE^−/− mouse hyperlipidemia model. An SMI0 intervention group was divided into a low-dose intervention group and a high-dose intervention group, which were administered with the compound SMI0 at 30 mg/kg and 150 mg/kg every day from the beginning of modeling to the end of the 16-week modeling. At the end of the experiment, blood was collected from the orbit, and the levels of blood lipid-associated indexes in the serum of each mouse were determined by an automatic biochemical analyzer (8 mice in each group).

[2] = tested on: U251 glioma cells; test: Direct effect on U251 glioma cells in vitro (CCK8); assay type: cell-based, human; conditions: up to 128 μmol/L or 200 μmol/L
Protocol: Experimental method: GL261 murine glioma cells and U251 human glioma cells in a logarithmic growth phase each were selected and inoculated into a 96-well plate at a concentration of 5*10^5 cells/mL, then 100 μL of a cell suspension was added to each well, and 12 h later, a medium was discarded; 200 μL of a basic medium including SMI0 at different concentrations ([…]) was added to each well, and 24 h later, 10 μL of a CCK8 reagent was added to each well; and the cells were further cultivated for 2 h, and an absorbance OD value of each well was determined at 450 nm by a microplate reader. 3 replicates were set for each well, and an average was taken. The proliferation activity was calculated based on the OD value.

[3] = tested on: focal cerebral ischemia-reperfusion injury in rats; test: Focal CIRI rat model with MCAO; assay type: in vivo
Text: Experimental method: A focal CTRI rat model with middle cerebral artery occlusion (MCAO) was constructed by a modified Zea-longa suture-occluded method.

[4] = tested on: CFA-induced rheumatoid arthritis in rats; test: CFA-induced rat rheumatoid arthritis model; assay type: in vivo, SD rat; conditions: for rat foot swelling alleviation rate: at 36 h
Protocol: Experimental method: An SD rat rheumatoid arthritis model was constructed with CFA (0.1 mL/rat). The SMI0 intervention group was divided into an ultra-low-dose group, a low-dose group, a medium-dose group, and a high-dose group, which were intragastrically administered with the compound SMI0 respectively at 1 mg/kg, 6 mg/kg, 30 mg/kg, and 150 mg/kg every day starting from two days before modeling; and the positive control group was intragastrically administered with celecoxib at 5 mg/kg. 10 animals were provided for each group. 1 d before administration of CFA to the rats, the above grouping and doses were adopted, and then the rats were administered once every day until the modeling was completed on day 10. Each rat was administered with CFA at a sole of a right hindfoot. A volume of each of the right hindfeet of rats was measured every day by a rat foot swelling measuring instrument (which was measured every 12 h in the first 3 days). A foot swelling rate of each rat was calculated according to a change of a right hindfoot volume of the rat relative to a hindfoot volume of the rat before the CFA administration at each time point, and a difference in foot swelling rate between groups of rats was analyzed.

[5] = tested on: GL261 cells / astrocytes; test: GL261 cells co-cultivated with M2 astrocytes; assay type: cell-based, mouse; conditions: SMI0 50 μmol/L vs M2 astrocyte co-cultivation group, P<0.05
Protocol: Experimental method: 10 1-2 d newborn C57BL/6 WT mice and 6 CYP2E1^−/− mice were taken, primary microglial cells and astrocytes were collected and inoculated into 6-well plates, and 24 h later, culture supernatants were taken and co-cultivated with glioma cells. Experimental groups: control group; M2 model group; high-concentration, medium-concentration, and low-concentration SMI0 (50 μmol/L, 12.5 μmol/L, and 3.1 μmol/L) groups; and CYP2E1 gene-knockout group. 24 h later, supernatants were discarded; and […] and IL-13 each were added at 20 ng/mL to induce the transformation of microglial cells into the M2 type in the M2 model group and the high-concentration, medium-concentration, and low-concentration SMI0 groups, and different concentrations of SMI0 (50 μmol/L, 12.5 μmol/L, and 3.1 μmol/L) were also added in the intervention groups. The proliferation of glioma cells was determined by a CCK8 method, and an apoptosis proportion was determined by an Annexin V-FITC-PI apoptosis staining kit.

[6] = tested on: liver fibrosis in mice induced by a high-fat diet; test: Mouse liver fibrosis model induced by a high-fat diet; assay type: in vivo, C57/6J mice; conditions: SMI0 30 and 150 mg/kg ig daily, 26 weeks, vs model group
Protocol: Experimental method: Male C57/6J mice were fed with a high-fructose, high-fat, and high-cholesterol feed to prepare mouse liver steatosis and hepatitis models, and a control group was fed with a low-fat and low-sugar control feed. An SMI0 intervention group was divided into a low-dose intervention group and a high-dose intervention group, which were intragastrically administered with the compound SMI0 at 30 mg/kg and 150 mg/kg every day from the beginning of modeling to the 26nd week of modeling. At the end of the 26-week experiment, blood was collected from the orbit, a body weight was measured, and then the mice each were sacrificed. The weight and appearance of a liver (color, texture, and presence or absence of nodules of the liver) were recorded. Some liver specimens were subjected to HE staining and then observed, and a steatosis score of mice in each group was recorded; and Masson staining was conducted to evaluate a liver fibrosis status of mice, and an oil red O staining area percentage was determined (model group, n=10 mice; SMI0 compound low-dose group, n=10 […]; and SMI0 compound high-dose group, n=10 […]).

CC(=O)c1scnc1C [SMI0]
total area of aortic root lesions (HE staining) ([1]; SMI0 high-dose group 150 mg/kg vs model group, P<0.01): significantly reduced
total area of aortic root lesions (oil red O staining) ([1]; SMI0 high-dose group 150 mg/kg vs model group, P<0.05): significantly reduced
High-density lipoprotein ([1]; SMI0 30 mg/kg daily): 2.37 ± 0.49 mmol/L
Low-density lipoprotein ([1]; SMI0 30 mg/kg daily): 17.94 ± 11.16 mmol/L
Total cholesterol ([1]; SMI0 30 mg/kg daily): 20.45 ± 10.77 mmol/L
Triglyceride ([1]; SMI0 30 mg/kg daily): 0.56 ± 0.04 mmol/L
High-density lipoprotein ([1]; SMI0 150 mg/kg daily): 3.68 ± 0.33*^@ mmol/L
Low-density lipoprotein ([1]; SMI0 150 mg/kg daily): 1.50 ± 0.77^@ mmol/L
Total cholesterol ([1]; SMI0 150 mg/kg daily): 5.35 ± 0.55^@ mmol/L
Triglyceride ([1]; SMI0 150 mg/kg daily): 0.40 ± 0.10 mmol/L
effect on the proliferation of U251 glioma cells [2]: no significant inhibitory effect
inhibition rate on the cerebral edema volume ([3]; SMI0 150 mg/kg): 34.39%
inhibition rate on the cerebral infarction volume ([3]; SMI0 150 mg/kg): 36.06%
cerebral edema volume ([3]; SMI0 150 mg/kg ig 10 min before reperfusion, 24 h reperfusion, model group 19.25%): 12.63%
cerebral infarction volume ([3]; SMI0 150 mg/kg ig 10 min before reperfusion, 24 h reperfusion, model group 51.03%): 32.62%
rat foot swelling alleviation rate ([4]; SMI0 1 mg/kg ig daily): 20.8%
rat foot swelling alleviation rate ([4]; SMI0 6 mg/kg ig daily): 34.2%
rat foot swelling alleviation rate ([4]; SMI0 30 mg/kg ig daily): 44.1%
rat foot swelling alleviation rate ([4]; SMI0 150 mg/kg ig daily): 52.5%
rat foot swelling caused by CFA ([4]; SMI0 intervention group vs model group, P<0.001): significantly alleviated
proliferation activity of GL261 cells [5]: significantly weakened
liver fibrosis level in mice induced by a high-fat diet [6]: significantly reduce
